Experiment [1] deals with Major prion protein (Homo sapiens, UniProt P04156). The experiment is classed as functional, cell-based.
Experiment [2] is described as follows: cells.
The target in experiment [3] is T1, RNA-binding protein pos-1 (Caenorhabditis elegans, UniProt G5EF15).
T1 sequence (G5EF15 whole entry): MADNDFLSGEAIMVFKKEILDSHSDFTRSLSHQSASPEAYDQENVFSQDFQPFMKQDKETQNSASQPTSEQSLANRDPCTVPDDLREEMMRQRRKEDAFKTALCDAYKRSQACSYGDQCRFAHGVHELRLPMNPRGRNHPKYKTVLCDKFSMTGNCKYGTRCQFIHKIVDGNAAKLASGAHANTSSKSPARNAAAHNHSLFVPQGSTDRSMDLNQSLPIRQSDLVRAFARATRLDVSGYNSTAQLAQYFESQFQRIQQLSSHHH
The experiment in a line: inhibitors of POS-1/mex-3 RNA binding, dose response, biochemical, fluorescence polarization (AID 1964).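 Also: purified POS-1 fused to maltose binding protein made in E. coli; potency of compounds blocking POS-1 binding to fluorescent RNA.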 On the technique in general: Polarisation of emitted light reports the rotation of a fluorescent probe.

Experiment [4] deals with T2, Zinc finger protein mex-5 (Caenorhabditis elegans, UniProt Q9XUB2).
T2 sequence (Q9XUB2 whole entry): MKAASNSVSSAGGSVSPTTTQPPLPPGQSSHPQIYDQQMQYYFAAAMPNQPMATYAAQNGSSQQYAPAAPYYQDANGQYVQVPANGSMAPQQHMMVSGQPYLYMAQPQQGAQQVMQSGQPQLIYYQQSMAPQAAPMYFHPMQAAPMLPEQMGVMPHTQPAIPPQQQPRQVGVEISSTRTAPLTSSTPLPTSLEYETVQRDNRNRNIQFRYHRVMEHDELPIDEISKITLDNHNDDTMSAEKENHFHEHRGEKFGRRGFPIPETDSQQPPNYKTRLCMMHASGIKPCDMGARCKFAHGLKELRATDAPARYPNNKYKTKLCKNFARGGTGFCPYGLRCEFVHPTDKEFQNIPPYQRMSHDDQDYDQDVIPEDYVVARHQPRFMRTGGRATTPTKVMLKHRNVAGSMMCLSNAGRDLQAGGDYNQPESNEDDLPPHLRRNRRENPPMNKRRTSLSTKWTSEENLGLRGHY
The experiment in a line: MEX-5/TCR-2 RNA interaction inhibitors, dose response, biochemical, C. elegans, fluorescence polarization (AID 1960).

Experiment [5] has as its target T3, Caspase-3 (Homo sapiens, UniProt P42574).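 Also: Dose-response selectivity test against caspase-3 for candidate inhibitors of sentrin-specific proteases (SENPs).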
T3 sequence (P42574 whole entry): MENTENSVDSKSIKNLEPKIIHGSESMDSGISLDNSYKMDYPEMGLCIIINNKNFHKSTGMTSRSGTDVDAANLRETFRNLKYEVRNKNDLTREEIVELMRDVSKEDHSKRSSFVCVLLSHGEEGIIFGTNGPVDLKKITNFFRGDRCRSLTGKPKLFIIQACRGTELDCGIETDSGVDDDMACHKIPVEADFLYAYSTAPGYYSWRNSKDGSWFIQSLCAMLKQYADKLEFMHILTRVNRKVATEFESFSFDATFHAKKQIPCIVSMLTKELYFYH
The experiment is classed as functional.

Experiment [6] concerns the target T4, Sentrin-specific protease 7 (Homo sapiens, UniProt Q9BQF6).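 Also: Luminescence-based dose-response confirmation of ultra-high-throughput screening hits, measuring inhibition of SENP7.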
T4 sequence (Q9BQF6 whole entry): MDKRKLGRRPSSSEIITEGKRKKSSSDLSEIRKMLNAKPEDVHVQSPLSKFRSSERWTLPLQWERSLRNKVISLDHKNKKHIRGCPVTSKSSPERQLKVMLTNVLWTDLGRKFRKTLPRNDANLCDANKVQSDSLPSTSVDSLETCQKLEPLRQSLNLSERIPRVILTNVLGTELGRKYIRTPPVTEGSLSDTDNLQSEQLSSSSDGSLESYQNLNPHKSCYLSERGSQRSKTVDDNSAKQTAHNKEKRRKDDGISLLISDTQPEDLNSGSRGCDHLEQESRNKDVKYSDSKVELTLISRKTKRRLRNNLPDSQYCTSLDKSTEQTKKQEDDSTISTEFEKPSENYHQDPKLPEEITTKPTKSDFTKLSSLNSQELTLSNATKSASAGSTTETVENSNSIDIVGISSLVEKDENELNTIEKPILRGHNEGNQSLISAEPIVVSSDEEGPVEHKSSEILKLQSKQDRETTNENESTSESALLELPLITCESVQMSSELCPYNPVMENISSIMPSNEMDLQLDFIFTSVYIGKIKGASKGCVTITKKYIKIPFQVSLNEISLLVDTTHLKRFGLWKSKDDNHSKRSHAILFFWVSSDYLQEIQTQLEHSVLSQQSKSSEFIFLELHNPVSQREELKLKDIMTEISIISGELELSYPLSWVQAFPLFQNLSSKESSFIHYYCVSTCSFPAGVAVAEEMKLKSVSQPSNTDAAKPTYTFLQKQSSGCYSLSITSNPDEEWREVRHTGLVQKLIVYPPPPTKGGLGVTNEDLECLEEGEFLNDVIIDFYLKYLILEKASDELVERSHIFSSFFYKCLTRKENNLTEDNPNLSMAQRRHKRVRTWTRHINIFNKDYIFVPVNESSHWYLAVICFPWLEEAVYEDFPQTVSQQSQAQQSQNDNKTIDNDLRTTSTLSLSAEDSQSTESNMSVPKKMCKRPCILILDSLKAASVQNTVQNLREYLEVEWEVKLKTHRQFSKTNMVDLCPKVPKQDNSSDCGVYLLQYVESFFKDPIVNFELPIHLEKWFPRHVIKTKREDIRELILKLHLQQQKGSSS
The experiment is classed as functional.

The target of experiment [7] is T5, Sentrin-specific protease 6 (Homo sapiens, UniProt Q9GZR1).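 Also: Luminescence-based dose-response confirmatory assay of SENP6 inhibition, following up an ultra-high-throughput screen.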
T5 sequence (Q9GZR1 whole entry): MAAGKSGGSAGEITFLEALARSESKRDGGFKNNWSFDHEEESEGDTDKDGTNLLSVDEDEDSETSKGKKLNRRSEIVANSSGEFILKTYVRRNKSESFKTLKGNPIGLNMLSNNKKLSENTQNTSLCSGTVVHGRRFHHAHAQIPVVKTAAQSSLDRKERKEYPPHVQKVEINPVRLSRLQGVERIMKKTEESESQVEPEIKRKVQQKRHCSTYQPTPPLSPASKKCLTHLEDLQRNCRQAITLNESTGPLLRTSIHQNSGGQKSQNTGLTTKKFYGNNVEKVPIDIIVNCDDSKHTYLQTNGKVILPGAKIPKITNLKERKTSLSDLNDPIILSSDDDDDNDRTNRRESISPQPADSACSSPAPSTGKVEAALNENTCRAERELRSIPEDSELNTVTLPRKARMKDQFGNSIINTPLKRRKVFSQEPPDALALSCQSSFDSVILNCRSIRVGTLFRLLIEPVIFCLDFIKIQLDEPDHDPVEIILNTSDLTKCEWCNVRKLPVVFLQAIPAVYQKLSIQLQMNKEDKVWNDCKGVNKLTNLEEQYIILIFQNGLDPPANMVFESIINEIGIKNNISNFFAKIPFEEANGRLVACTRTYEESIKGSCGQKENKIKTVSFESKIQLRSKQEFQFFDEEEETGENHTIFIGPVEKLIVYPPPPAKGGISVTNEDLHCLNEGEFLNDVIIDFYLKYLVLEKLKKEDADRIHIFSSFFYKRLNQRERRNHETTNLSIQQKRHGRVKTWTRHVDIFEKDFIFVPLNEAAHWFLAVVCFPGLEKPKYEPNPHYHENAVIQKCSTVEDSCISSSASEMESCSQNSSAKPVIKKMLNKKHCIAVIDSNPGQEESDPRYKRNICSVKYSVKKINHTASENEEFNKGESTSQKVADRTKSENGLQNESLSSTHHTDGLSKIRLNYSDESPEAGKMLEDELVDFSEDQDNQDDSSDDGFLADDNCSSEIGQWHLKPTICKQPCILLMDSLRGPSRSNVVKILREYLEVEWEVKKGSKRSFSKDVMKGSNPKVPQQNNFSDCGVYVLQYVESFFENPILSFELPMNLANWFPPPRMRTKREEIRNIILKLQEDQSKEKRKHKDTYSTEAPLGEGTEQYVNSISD
The format is functional.

Experiment [8] has as its target FAD-linked sulfhydryl oxidase ALR (Homo sapiens, UniProt P55789). The experiment can be described thus: inhibitors of human ALR sulfhydryl oxidase, dose response, biochemical, H2O2 detection, luminescence, cherry-pick (AID 493248).
Experiment [9] has as its target T6, Sentrin-specific protease 8 (Homo sapiens, UniProt Q96LD8).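 Also: luminescence read-out of SENP8 inhibition, dose-response confirmation following an ultra-high-throughput screen.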
T6 sequence (Q96LD8 whole entry): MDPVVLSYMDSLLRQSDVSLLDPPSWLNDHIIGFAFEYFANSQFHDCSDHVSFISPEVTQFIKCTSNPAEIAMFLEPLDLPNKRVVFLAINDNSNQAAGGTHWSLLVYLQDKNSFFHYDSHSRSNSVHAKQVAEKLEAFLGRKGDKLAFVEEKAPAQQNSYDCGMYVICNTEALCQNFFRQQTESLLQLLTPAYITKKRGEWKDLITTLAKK
The format is functional.

Experiment [10] addresses T7, Oxysterols receptor LXR-beta (Homo sapiens, UniProt P55055).
T7 sequence (P55055 whole entry): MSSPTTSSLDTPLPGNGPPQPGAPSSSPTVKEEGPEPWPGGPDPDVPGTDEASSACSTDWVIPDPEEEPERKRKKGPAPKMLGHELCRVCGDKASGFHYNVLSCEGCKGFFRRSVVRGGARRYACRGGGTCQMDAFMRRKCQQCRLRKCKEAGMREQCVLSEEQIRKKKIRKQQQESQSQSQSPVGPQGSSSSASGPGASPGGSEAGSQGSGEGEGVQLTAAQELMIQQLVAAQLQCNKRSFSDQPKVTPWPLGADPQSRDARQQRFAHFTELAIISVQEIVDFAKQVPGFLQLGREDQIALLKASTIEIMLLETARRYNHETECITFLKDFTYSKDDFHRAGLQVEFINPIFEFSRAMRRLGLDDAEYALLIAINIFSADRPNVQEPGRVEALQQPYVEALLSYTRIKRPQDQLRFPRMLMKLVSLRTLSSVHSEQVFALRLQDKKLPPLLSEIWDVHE
The format is functional, cell-based.

Experiment [11] can be described thus: Luminescence Cell-Based Dose Confirmation HTS to Identify Activators of 5'UTR Stem-Loop Driven Alpha-Synuclein mRNA Translation in H4 Neuroglioblastoma Cells. [Related pubchem assays: 1829 (Project Summary), 1814 (Primary HTS)]. The format is functional.
A short description of experiment [12]: Luminescence Cell-Based Dose Response HTS to Identify Activators of Luciferase Translation or Activity in H4 […] Cells. [Related pubchem assays: 1829 (Project Summary), 1814 (Primary HTS)]. The experiment is classed as functional.
A short description of experiment [13]: inhibitors of Vif binding to APOBEC3G peptide, primary screen, biochemical, TR-FRET, GST-Vif 1-94, biotin-A3G peptide, dose response retest (AID 1117319).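 Also: inhibitors lower the FRET signal by blocking Vif and A3G binding.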 The experiment is classed as functional. In general terms: In TR-FRET formats the signal depends on donor and acceptor labels being close together.
The target in experiment [14] is Endoplasmic reticulum aminopeptidase 1 (Homo sapiens, UniProt Q9NZ08). The experiment can be described thus: ERAP1 aminopeptidase inhibitors, dose response, biochemical, cherry-pick, set 2, plate reader (AID 743314).

Activity calls are given as the source filed them. A value given as a limit tells only on which side of the number the result lay.

`CCOC(=O)CSc1nc(CC)nc2ccccc12`: the values for the concentration for half-maximal inhibition (IC50) in [1] and in [2] were 1.08 µM (active) and > 138 µM (inactive), respectively.
With `Cc1nnc(S)c2nn(-c3cccc(Cl)c3)c(C)c12`, the EC50 (commonly the concentration that produces a half-maximal response) is 137 µM (active) in [3] and 153 µM (active) in experiment [4]. Further, the IC50 (usually the midpoint of a concentration-inhibition curve) in experiment [1] is 5.53 µM (active); in experiment [2] it was > 138 µM (inactive).
For the compound `Cc1cccc(N=Nc2cnc(N)s2)c1`, the half-maximal inhibitory concentration (IC50) in [5] is 34.5 µM (active); in experiment [6], 9.64 µM (active); in experiment [7], 25.8 µM (active); in experiment [9], 19.1 µM (active). Further, the AC50 – broadly, the concentration giving half of the maximal activity seen – in experiment [8] is 1.29 µM (active). Besides, the EC50 in experiment [10] was > 67.6 µM (inactive).
As for `CCCS(=O)(=O)NCc1cn2c(C)csc2n1`, the EC50 was 6.17 µM (active) in experiment [11], 12.6 µM (active) in experiment [12] and > 67.5 µM (inactive) in experiment [10]. For the same compound, the half-inhibitory concentration (IC50) in [13] is > 100 µM (active).
As to `CCCN1[C@@H]2c3ccc(/C=C/c4ccccc4)c(=O)n3C[C@H]1[C@H](CO)[C@H]2C(=O)NCc1ccccn1`, the AC50 in experiment [14] is 6.65 µM (active).
Regarding `COC(=O)[C@H]1[C@H](CO)[C@H]2Cn3c(ccc(/C=C/c4ccccc4)c3=O)[C@@H]1N2CC1CCCC1`, the AC50 in experiment [14] was 11.9 µM (active).
As to `Cc1ccc(-c2cn3cccnc3n2)cc1`, in experiment [10], the EC50 was > 67.6 µM (inactive).

Values taken from ChEMBL document CHEMBL1201862, “PubChem BioAssay data set” (2004).
